Literature values, collected in patent publication US20180133221A1, “ADMINISTRATION OF UBIQUITIN-ACTIVATING ENZYME INHIBITOR AND CHEMOTHERAPEUTIC AGENTS” (Millennium Pharmaceuticals, Inc., priority 2014, published 2018).

How the values were obtained:
[1] = tested on: leukemia and myeloma cell lines; settings: leukemia and myeloma cell lines (Xu et al., 2010); cited from earlier work
[2] = tested on: mouse acute myeloid leukemia (AML model); settings: mouse AML model (Xu et al., 2010); cited from earlier work

For `O=C1NN(c2ccc(F)c(Cl)c2)C(=O)/C1=C\c1ccc([N+](=O)[O-])o1` [PYZD-4409], which cell death [1] is on record?
The cell death was “induced cell death”.

What about the anti-tumor activity [2] of the same compound?
Its anti-tumor activity is “demonstrated anti-tumor activity”.
